# Literature values in patent US20200319191A1, “MOLECULAR PROFILING FOR CANCER” (Caris MPI, Inc., priority 2015, published 2020).
# Target: T1, ribonucleotide reductase (Homo sapiens, UniProt P23921)
# T1 sequence (P23921 1-792): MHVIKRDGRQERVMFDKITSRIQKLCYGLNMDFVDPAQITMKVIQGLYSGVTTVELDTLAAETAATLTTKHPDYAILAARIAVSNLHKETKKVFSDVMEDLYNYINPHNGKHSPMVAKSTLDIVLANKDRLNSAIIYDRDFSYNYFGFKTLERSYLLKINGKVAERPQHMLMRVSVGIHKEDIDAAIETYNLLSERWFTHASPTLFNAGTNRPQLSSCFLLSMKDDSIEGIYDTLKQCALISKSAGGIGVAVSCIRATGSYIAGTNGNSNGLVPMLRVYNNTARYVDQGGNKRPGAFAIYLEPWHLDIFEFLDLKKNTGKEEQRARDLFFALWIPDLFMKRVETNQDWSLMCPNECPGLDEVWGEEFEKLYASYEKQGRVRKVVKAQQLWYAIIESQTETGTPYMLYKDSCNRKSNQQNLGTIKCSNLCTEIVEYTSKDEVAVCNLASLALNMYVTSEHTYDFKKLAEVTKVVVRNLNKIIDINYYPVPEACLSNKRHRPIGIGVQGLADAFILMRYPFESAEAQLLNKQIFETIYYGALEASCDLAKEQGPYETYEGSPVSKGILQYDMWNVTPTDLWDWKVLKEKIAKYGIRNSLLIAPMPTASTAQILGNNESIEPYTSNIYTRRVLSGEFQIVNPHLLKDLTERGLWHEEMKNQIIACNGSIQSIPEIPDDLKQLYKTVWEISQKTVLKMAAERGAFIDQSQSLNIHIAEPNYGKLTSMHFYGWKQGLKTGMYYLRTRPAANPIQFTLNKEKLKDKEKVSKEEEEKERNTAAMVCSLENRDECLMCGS
smiles,measurement,value
Nc1ccn([C@@H]2O[C@H](CO)[C@@H](O)C2(F)F)c(=O)n1 [Gemcitabine],effect on ribonucleotide reductase activity,synthesis. Gemcitabine is a deoxycitidine analogue which inhibits ribonucleotide reductase
